Literature values in PMC11195919 (Journal of pharmacy & pharmaceutical sciences : a …, 2021).

Tests used:
OATP1B3 = conditions: read-out: Km of CCK-8 transport by OATP1B3

For cholecystokinin octapeptide [CCK-8], the “linear range of initial uptake of CCK-8” value (primary rat hepatocyte; non-transduced rat hepatocytes) is listed as “at least 1 min”, the Km (primary rat hepatocyte; read-out: Km of CCK-8 uptake in primary rat hepatocyte) is listed as 6.7 µM and the Km (OATP1B3) is listed as 3.82 µM.
